In paper PMC4505863 (ACS Chemical Neuroscience, 2014):
Read-outs that look alike come from different tables or passages of the source.

Tests used:
[1] = molecular target: r5-HT2A (Rattus norvegicus, UniProt P14842); assay: Ca2+ mobilization assay; type: cell-based; details: for EC50: r5-HT2A EC50, Ca2+ mobilization; for Emax: read-out: r5-HT2A Emax, percentage of the maximum response to 5-HT
[2] = molecular target: 5-ht5a (Homo sapiens, UniProt P47898); assay: PDSP screening affinity 5-ht5a; type: binding; details: 5-ht5a affinity
[3] = molecular target: 5-ht1e (Homo sapiens, UniProt P28566); assay: PDSP screening affinity 5-ht1e; type: binding
[4] = tested on: Male C57BL/6J mice; details: cited from earlier work
[5] = molecular target: 5-HT7 (Homo sapiens, UniProt P34969); assay: PDSP screening affinity 5-HT7; type: binding; details: 5-HT7 affinity
[6] = molecular target: 5-HT1D (Homo sapiens, UniProt P28221); assay: PDSP screening affinity 5-HT1D; type: binding
[7] = molecular target: T1, human 5-HT2C receptor (Homo sapiens, UniProt P28335); assay: h5-HT2C affinity, agonist radioligand [125I]DOI; type: binding
T1 sequence (P28335 33-458): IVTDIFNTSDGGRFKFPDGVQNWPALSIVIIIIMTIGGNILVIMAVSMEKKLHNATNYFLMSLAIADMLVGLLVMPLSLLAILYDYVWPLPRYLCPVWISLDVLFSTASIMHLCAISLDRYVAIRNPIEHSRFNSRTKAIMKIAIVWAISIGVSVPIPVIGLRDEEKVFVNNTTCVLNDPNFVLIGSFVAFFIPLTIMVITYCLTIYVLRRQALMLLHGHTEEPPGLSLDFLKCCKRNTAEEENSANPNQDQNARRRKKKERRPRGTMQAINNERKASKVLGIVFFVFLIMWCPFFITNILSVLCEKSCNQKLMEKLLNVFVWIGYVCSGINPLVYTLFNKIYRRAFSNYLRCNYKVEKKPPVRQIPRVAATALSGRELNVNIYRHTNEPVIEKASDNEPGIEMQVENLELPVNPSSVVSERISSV

[8] = molecular target: 5-HT6 (Homo sapiens, UniProt P50406); assay: PDSP screening affinity 5-HT6; type: binding; details: 5-HT6 affinity
[9] = molecular target: T2, h5-HT2C (Homo sapiens, UniProt P28335); assay: Ca2+ mobilization assay; type: cell-based; details: for Emax: HEK293, read-out: h5HT2C Emax; for EC50: h5HT2C EC50, Ca2+ mobilization
T2 sequence (P28335 33-458): T1 sequence (P28335 33-458)

[10] = molecular target: T3, r5-HT2C (Rattus norvegicus, UniProt P08909); assay: Ca2+ mobilization assay; type: cell-based; details: for Emax: read-out: r5-HT2C Emax
T3 sequence (P08909 33-460): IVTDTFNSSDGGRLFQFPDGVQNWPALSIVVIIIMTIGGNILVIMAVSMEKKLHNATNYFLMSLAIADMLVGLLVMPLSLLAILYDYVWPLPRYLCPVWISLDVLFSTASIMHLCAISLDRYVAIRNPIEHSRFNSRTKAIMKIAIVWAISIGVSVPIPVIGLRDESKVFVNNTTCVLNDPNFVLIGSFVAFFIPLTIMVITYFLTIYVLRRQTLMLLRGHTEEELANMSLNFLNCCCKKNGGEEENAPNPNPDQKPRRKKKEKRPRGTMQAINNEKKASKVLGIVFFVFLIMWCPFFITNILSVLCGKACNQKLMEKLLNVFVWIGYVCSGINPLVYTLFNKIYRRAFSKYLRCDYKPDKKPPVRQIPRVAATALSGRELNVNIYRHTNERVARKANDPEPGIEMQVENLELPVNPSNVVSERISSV

[11] = tested on: rat tail artery; details: cited from earlier work; for pEC50, rat tail artery: agonist potency
[12] = molecular target: T4, 5-HT2A receptor (Homo sapiens, UniProt P28223); assay: h5-HT2A affinity, antagonist radioligand [3H]ketanserin; type: binding
[13] = molecular target: T4, 5-HT2A receptor; assay: h5-HT2A affinity, agonist radioligand [125I]DOI; type: binding
[14] = molecular target: 5-HT1B (Homo sapiens, UniProt P28222); assay: PDSP screening affinity 5-HT1B; type: binding
[15] = molecular target: 5-HT2B (Homo sapiens, UniProt P41595); assay: PDSP screening affinity 5-HT2B; type: binding
[16] = molecular target: T5, 5-HT3 (Homo sapiens, UniProt P46098); assay: PDSP screening affinity 5-HT3; type: binding
T5 sequence (P46098 24-478): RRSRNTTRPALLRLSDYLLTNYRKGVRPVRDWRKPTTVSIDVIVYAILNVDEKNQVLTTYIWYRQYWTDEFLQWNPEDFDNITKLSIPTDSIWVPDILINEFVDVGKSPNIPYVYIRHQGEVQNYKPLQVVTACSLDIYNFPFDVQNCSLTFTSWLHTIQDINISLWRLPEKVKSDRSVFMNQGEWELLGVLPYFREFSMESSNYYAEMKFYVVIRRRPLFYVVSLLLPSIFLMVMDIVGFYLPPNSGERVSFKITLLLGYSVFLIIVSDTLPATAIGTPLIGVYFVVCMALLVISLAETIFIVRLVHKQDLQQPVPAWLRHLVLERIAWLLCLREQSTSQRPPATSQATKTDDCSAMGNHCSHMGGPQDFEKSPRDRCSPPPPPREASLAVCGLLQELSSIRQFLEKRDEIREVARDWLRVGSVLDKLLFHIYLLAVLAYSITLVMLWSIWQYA

[17] = molecular target: T1, human 5-HT2C receptor; assay: h5-HT2C affinity, antagonist radioligand [3H]mesulergine; type: binding
[18] = molecular target: h5-HT2B (Homo sapiens, UniProt P41595); assay: Ca2+ mobilization assay; type: cell-based; details: for Emax: HEK293, read-out: h5-HT2B Emax
[19] = molecular target: T6, 5-HT1A (Homo sapiens, UniProt P08908); assay: PDSP screening affinity 5-HT1A; type: binding; details: 5-HT1A affinity
T6 sequence (P08908 1-422): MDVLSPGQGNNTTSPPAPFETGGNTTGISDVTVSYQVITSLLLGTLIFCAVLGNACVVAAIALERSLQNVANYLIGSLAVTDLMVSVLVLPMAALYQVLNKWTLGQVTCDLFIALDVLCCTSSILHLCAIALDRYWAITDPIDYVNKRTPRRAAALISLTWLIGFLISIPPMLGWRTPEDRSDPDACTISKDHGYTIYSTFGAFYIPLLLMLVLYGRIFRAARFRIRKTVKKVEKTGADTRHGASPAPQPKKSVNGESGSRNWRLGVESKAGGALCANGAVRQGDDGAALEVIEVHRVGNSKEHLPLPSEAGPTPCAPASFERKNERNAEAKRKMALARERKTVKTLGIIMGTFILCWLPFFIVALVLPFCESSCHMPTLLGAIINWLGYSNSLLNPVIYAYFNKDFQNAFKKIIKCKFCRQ

[20] = molecular target: h5-HT2A (Homo sapiens, UniProt P28223); assay: Ca2+ mobilization assay; type: cell-based; details: for Emax: HEK293, read-out: h5-HT2A Emax, percentage of the maximum response to 5-HT
[21] = tested on: Male C57BL/6J mice; assay: Mouse head twitch response; details: for activity in the HTR assay (active / inactive): doses up to 30 mg/kg
[22] = molecular target: T4, 5-HT2A receptor; details: authentic 4-bromo compound; cited from earlier work
[23] = molecular target: T4, 5-HT2A receptor; details: cited from earlier work
[24] = tested on: 5-HT2A; details: cited from earlier work
[25] = tested on: isolated guinea pig uterus; details: cited from earlier work
[26] = tested on: 5-HT2 type receptors in rabbit aorta; details: cited from earlier work
[27] = tested on: isolated guinea pig taenia cecum; details: cited from earlier work
[28] = tested on: 5-HT2 type receptors in rat jugular vein; details: cited from earlier work
[29] = tested on: rat stomach fundus; details: cited from earlier work
[30] = percentage of the maximum response to 5-HT
[31] = r5-HT2C EC50, Ca2+ mobilization
[32] = h5-HT2B EC50, Ca2+ mobilization

Chain of r5-HT2A (P14842 whole entry): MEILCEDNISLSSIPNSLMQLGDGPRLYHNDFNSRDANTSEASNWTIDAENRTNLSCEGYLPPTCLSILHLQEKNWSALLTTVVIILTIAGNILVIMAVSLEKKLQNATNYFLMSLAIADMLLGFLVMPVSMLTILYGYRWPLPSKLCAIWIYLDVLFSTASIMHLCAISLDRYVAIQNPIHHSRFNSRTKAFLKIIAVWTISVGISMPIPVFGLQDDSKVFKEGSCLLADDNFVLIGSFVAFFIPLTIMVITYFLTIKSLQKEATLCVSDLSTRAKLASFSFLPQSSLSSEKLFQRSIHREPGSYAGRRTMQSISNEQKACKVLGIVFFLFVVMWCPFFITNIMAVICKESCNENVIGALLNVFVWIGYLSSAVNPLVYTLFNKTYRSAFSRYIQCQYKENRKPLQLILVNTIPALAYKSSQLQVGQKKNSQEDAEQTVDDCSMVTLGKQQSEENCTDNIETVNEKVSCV
Chain of 5-HT1B (P28222 whole entry): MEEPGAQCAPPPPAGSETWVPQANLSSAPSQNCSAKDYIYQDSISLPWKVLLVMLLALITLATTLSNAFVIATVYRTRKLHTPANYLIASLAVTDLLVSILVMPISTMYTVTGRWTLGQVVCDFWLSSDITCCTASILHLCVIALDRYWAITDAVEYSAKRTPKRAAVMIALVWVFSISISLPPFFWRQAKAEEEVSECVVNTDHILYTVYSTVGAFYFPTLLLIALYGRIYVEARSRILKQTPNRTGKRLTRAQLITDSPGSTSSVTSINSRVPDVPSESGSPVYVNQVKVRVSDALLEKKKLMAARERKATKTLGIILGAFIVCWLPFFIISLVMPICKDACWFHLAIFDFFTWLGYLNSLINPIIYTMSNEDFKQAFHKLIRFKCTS
Chain of 5-ht1e (P28566 whole entry): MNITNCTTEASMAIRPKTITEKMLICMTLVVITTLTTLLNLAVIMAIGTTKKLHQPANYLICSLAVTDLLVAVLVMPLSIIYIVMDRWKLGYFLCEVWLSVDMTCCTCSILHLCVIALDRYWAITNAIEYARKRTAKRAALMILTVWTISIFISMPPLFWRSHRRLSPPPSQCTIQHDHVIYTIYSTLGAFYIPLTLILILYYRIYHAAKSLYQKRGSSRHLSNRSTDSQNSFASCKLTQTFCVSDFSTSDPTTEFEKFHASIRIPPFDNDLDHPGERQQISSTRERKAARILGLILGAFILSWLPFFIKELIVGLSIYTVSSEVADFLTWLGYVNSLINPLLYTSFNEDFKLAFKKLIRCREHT
Chain of 5-ht5a (P47898 whole entry): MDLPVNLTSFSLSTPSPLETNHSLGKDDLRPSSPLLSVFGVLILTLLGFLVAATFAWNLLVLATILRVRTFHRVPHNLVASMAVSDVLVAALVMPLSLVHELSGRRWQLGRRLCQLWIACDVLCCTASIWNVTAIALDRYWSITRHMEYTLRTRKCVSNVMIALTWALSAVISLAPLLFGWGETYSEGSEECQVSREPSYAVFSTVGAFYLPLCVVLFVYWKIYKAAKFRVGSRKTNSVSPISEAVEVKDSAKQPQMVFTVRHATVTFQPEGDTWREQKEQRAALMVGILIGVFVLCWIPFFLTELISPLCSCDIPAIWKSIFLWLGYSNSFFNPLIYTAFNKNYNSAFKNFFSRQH
Chain of 5-HT2B (P41595 whole entry): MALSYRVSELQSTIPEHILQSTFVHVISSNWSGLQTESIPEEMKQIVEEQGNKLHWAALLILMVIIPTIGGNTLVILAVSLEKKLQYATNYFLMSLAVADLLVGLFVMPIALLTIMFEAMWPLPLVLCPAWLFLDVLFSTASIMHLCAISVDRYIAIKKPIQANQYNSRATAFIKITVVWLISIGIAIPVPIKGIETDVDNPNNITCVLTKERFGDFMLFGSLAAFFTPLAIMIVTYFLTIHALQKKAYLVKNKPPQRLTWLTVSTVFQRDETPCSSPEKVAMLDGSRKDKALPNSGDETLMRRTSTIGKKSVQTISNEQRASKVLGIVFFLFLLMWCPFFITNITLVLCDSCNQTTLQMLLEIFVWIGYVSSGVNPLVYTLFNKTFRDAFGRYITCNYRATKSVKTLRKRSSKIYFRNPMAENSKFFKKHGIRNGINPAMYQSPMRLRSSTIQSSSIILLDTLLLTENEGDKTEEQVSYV
Chain of h5-HT2B (P41595 whole entry): as above
Chain of 5-HT1D (P28221 whole entry): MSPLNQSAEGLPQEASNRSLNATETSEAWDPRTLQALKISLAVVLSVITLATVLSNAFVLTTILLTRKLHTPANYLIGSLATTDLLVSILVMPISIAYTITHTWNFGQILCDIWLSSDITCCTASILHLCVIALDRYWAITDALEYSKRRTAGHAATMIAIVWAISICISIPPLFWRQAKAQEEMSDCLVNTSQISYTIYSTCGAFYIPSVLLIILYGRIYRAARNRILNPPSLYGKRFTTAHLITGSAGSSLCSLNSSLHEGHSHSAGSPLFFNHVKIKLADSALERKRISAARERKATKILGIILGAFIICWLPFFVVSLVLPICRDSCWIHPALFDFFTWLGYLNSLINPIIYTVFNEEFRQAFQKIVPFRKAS
Chain of 5-HT7 (P34969 whole entry): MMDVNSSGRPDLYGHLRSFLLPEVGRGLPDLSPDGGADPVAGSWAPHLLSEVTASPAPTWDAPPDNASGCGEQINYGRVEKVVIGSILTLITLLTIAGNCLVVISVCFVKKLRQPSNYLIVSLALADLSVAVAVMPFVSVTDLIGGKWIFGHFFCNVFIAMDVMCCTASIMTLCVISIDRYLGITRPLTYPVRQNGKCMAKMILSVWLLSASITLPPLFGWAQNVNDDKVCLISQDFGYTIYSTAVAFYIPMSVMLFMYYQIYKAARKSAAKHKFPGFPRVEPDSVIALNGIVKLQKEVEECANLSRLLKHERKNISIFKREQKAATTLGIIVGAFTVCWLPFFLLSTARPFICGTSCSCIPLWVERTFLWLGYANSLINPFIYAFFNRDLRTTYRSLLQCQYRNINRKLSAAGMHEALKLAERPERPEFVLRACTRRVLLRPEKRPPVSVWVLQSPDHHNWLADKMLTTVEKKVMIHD
T4 sequence (P28223 whole entry): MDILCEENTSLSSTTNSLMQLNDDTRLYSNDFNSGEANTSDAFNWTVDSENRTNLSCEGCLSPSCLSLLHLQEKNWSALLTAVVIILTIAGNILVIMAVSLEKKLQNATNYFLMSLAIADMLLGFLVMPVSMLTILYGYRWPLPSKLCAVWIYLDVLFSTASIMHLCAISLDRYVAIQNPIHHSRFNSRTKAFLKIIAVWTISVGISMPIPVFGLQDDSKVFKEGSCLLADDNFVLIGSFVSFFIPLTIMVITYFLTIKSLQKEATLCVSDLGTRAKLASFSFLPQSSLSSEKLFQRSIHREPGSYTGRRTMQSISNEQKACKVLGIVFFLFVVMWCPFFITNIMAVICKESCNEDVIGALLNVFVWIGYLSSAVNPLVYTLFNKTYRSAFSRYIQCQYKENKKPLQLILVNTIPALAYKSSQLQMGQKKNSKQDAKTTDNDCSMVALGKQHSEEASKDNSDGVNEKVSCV
Chain of h5-HT2A (P28223 whole entry): as above
Chain of 5-HT6 (P50406 whole entry): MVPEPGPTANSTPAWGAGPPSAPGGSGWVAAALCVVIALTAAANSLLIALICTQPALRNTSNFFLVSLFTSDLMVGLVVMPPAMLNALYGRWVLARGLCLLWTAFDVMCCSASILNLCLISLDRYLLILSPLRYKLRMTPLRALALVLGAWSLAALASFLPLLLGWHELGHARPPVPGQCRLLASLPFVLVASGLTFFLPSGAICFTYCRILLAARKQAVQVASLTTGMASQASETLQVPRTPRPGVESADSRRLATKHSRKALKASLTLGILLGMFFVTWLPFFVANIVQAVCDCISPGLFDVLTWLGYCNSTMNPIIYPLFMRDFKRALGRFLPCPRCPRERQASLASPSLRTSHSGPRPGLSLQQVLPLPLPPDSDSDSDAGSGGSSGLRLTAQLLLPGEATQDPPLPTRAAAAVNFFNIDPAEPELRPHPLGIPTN

SMILES	EC50 [1] [nM]	Ki [2] [nM]	Ki [3] [nM]	Ki [5] [nM]	Ki [6] [nM]	Ki [7] [nM]	Ki [8] [nM]	Emax [9] [%]	EC50 [9] [nM]	EC50 [10, 31] [nM]	Emax [10] [%]	Ki [12] [nM]	Ki [13] [nM]	Ki ([14]; 5-HT1B affinity) [nM]	Ki ([15]; 5-HT2B pKi ± SEM) [nM]	Ki [16] [nM]	Ki [17] [nM]	Emax [18] [%]	Ki [19] [nM]	EC50 [20] [nM]	other results
COc1cc(CCNCc2ccccc2OC)c(OC)cc1I [Compound 1, N-(2-Methoxybenzyl)-2-(4-iodo-2,5-dimethoxyphenyl)ethan-1-amine]	11	2790	> 10000	1540	533	0.5	32	92	41.7	95	104 ± 2	0.52	0.158	5890	1.38	> 10000	0.69	65 ± 2	1030	4.2	r5-HT2A Emax [1, 30]: 79.4 ± 1.1%; max counts ([4]; HTR counts): 102.6; activity in the HTR assay (active / inactive) [4]: active; magnitude of peak effect × vehicle ([4]; mouse head twitch): 16.0 × vehicle; maximally effective dose ([4]; mouse head twitch): 1 mg/kg; ED50 mg/kg (95% CI), mouse head twitch ([4]; test duration 30 min, ref 31 (Halberstadt and Geyer)): 0.078 (0.055–0.111) mg/kg; h5-HT2C Ki ([7]; [125I]DOI): subnanomolar affinity; pEC50, rat tail artery [11]: 10.09; Emax, rat tail artery [11]: 30%; h5-HT2A Ki ([13]; [125I]DOI): subnanomolar affinity; EC50 ([18]; h5-HT2B pEC50 ± SEM, Ca2+ mobilization, NA = not active, Emax ≤ 15%): 15.5 nM; Emax [20]: 86.4 ± 1.4%
COc1ccc2[nH]cc(CCNCc3ccccc3OC)c2c1 [Compound 5a, N-(2-Methoxybenzyl)-2-(5-methoxy-1H-indol-3-yl)ethan-1-amine]	21	> 10000	> 10000	1770	1290	3.39	87	119 ± 6	57.1		102 ± 2	16.6	1.51	> 10000	9.12	> 10000	32.4	52 ± 2	231	1.9	Emax [1]: 80.9 ± 1.1%; EC50 ([10]; r5-HT2C pEC50 ± SEM, Ca2+ mobilization): 16.2 nM; pEC50, rat tail artery [11]: 7.08; Ki ([15]; 5-HT2B affinity): 9 nM; max counts ([21]; HTR counts, SC): 25.4; ED50 ([21]; Mus musculus, sc, read-out: ED50 mg/kg (95% CI), mouse head twitch): 3.15 mg/kg; activity in the HTR assay (active / inactive) ([21]; SC): active; magnitude of peak effect × vehicle ([21]; SC, mouse head twitch): 3.9 × vehicle; maximally effective dose ([21]; SC, mouse head twitch): 10 mg/kg; EC50 [18, 32]: 6.7 nM; h5-HT2A Emax [20, 30]: 85.2 ± 1.4%
COc1ccc2[nH]cc(CCNCc3ccc(Br)cc3)c2c1 [Compound 5f, N-(4-Bromobenzyl)-2-(5-methoxy-1H-indol-3-yl)ethan-1-amine]	1500	1030	> 10000	358	271	28.8	566	83 ± 7	529	204	108 ± 2	427	11.2	4370	148	> 10000	251	90 ± 2	78	430	Emax [1]: 77.6 ± 2.4%; affinity for the 5-HT2A receptor [22]: relatively low affinity; Ki ([14]; 5-HT1B pKi ± SEM): 4470 nM; Ki ([15]; 5-HT2B affinity): 150 nM; selectivity for 5-HT2A over 5-HT2C receptors ([23]; 5-HT2A agonist radioligand, 5-HT2C antagonist radioligand): 1000 fold; activity in the HTR assay (active / inactive) ([21]; SC): None of the phenethylamines or tryptamines with 4-substituted N-benzyl groups, 4b, 4e, 5c, or 5f, was active; EC50 [18, 32]: 290 nM; Emax [20]: 90.3 ± 1.2%
COc1cc(CCNCc2ccccc2O)c(OC)cc1C#N [Compound 25CN-NBOH, N-(2-hydroxybenzyl)-2,5-dimethoxy-4-cyanophenethylamine]																					selectivity for 5-HT2A over 5-HT2C [24]: 100 fold
COc1ccc2[nH]cc(CCNCc3ccccc3)c2c1 [N-benzyl-5-methoxytryptamine]																					effect on serotonin-induced contraction [25]: antagonist; agonist activity at 5-HT2 type receptors [26]: weak partial agonist activity; effect on serotonin-induced contraction [27]: antagonist; affinity relative to the parent primary amine ([23]; receptor not given): essentially no effect on affinity; agonist activity at 5-HT2 type receptors [28]: weak partial agonist activity; effect on serotonin-induced contraction [29]: antagonist
